How the values were obtained:
PRMT5/MEP50 = biological target: T1, PRMT5/MEP50 (Homo sapiens, UniProt O14744); test: PRMT5 Biochemical Assay (PRMT5/MEP50 enzyme assay on peptide substrate, 3H-SAM Flashplate); conditions: PRMT5/MEP50 4 nM, 3H-SAM 75 nM, peptide 40 nM, 30 min preincubation at 25 degrees Celsius
T1 construct: Flag-PRMT5; made in house; host or cells: Spodoptera frugiperda (SF9) insect cells, baculovirus (pDEST8)
Source text: S-adenosylmethionine (SAM), S-adenosylhomocysteine (SAH), bicine, KCl, Tween20, dimethylsulfoxide (DMSO), bovine skin gelatin (BSG), and Tris(2-carboxyethyl)phosphine hydrochloride solution (TCEP) were purchased from Sigma-Aldrich at the highest level of purity possible. ^3H-SAM was purchase from American Radiolabeled Chemicals with a specific activity of 80 Ci/mmol. 384-well streptavidin Flashplates were purchased from PerkinElmer.
Peptide representative of human histone H4 residues 1-15 was synthesized with a C-terminal linker-affinity tag motif and a C-terminal amide cap by 21st Century Biochemicals. The peptide was high high-performance liquid chromatography (HPLC) purified to greater than 95% purity and confirmed by liquid chromatography mass spectrometry (LC-MS). The sequence was Ac-[…][K-Biot]-amide (SEQ ID NO.:3).
Full-length human PRMT5 (NM_006109.3) transcript variant 1 clone was amplified from a fetal brain cDNA library, incorporating flanking 5′ sequence encoding a FLAG tag ([…]) (SEQ ID NO.:4) fused directly to Ala 2 of PRMT5. Full-length human MEP50 (NM_024102) clone was amplified from a human testis cDNA library incorporating a 5′ sequence encoding a 6-histidine tag (MHHHHHH) (SEQ ID NO.:5) fused directly to Arg 2 of MEP50. The amplified genes were sublconed into pENTR/D/TEV (Life Technologies) and subsequently transferred by Gateway™ attL×attR recombination to pDEST8 baculvirus expression vector (Life Technologies).
Recombinant baculovirus and Baculovirus-Infected Insect Cells (BIIC) were generated according to Bac-to-Bac kit instructions (Life Technologies) and Wasilko, 2006, respectively. Protein over-expression was accomplished by infecting exponentially growing Spodoptera frugiperda (SF9) cell culture at 1.2×10^6 cell/ml with a 5000 fold dilution of BIIC stock. Infections were carried out at 27° C. for 72 hours, harvested by centrifugation, and stored at −80° C. for purification.
Flag-PRMT5/6His-MeP50 was eluted with 300 mM Imidazole in the same buffer. The purity of recovered protein was 87%. Reference: Wasilko, D. J. and S. E. Lee: “TIPS: titerless infected-cells preservation and scale-up” Bioprocess J., 5 (2006), pp. 29-32.
General Procedure for PRMT5/MEP50 Enzyme Assays on Peptide Substrates.
The assays were all performed in a buffer consisting of 20 mM Bicine (pH=7.6), 1 mM TCEP, 0.005% BSG, and 0.002% Tween20, prepared on the day of use. Compounds in 100% DMSO (1 ul) were spotted into a polypropylene 384-well V-bottom plates (Greiner) using a Platemate Plus outfitted with a 384-channel head (Thermo Scientific). DMSO (1 ul) was added to Columns 11, 12, 23, 24, rows A-H for the maximum signal control and 1 ul of SAH, a known product and inhibitor of PRMT5/MEP50, was added to columns 11, 12, 23, 24, rows I-P for the minimum signal control. A cocktail (40 ul) containing the PRMT5/MEP50 enzyme and the peptide was added by Multidrop Combi (Thermo-Fisher). The compounds were allowed to incubate with PRMT5/MEP50 for 30 min at 25 degrees Celsius, then a cocktail (10 ul) containing ^3H-SAM was added to initiate the reaction (final volume=51 ul). The final concentrations of the components were as follows: PRMT5/MEP50 was 4 nM, ^3H-SAM was 75 nM, peptide was 40 nM, SAH in the minimum signal control wells was 100 uM, and the DMSO concentration was 1%. The assays were stopped by the addition of non-radioactive SAM (10 ul) to a final concentration of 600 uM, which dilutes the ^3H-SAM to a level where its incorporation into the peptide substrate is no longer detectable. 50 ul of the reaction in the 384-well polypropylene plate was then transferred to a 384-well Flashplate and the biotinylated peptides were allowed to bind to the streptavidin surface for at least 1 hour before being washed three times with 0.1% Tween20 in a Biotek ELx405 plate washer. […]

[1] = system: Symmetric di-Methyl Arginine in Z-138 cells; test: Z-138 Methylation Assay (In Cell Western for symmetric di-methyl arginine); type: cell-based; conditions: Homo sapiens, 96 hours incubation, symmetric di-methyl arginine normalised to DNA content, read-out: ICW EC50
Source text: Z-138 suspension cells were purchased from ATCC (American Type Culture Collection, Manassas, Va.). RPMI/Glutamax medium, penicillin-streptomycin, heat inactivated fetal bovine serum, and D-PBS were purchased from Life Technologies, Grand Island, N.Y., USA. Odyssey blocking buffer, 800CW goat anti-rabbit IgG (H+L) antibody, and Licor Odyssey infrared scanner were purchased from Licor Biosciences, Lincoln, Nebr., USA. Symmetric di-methyl arginine antibody was purchased from EMD Millipore, Billerica, Mass., USA. 16% Paraformaldehyde was purchased from Electron Microscopy Sciences, Hatfield, Pa., USA.
Z-138 suspension cells were maintained in growth medium (RPMI 1640 supplemented with 10% v/v heat inactivated fetal bovine serum and 100 units/mL penicillin-streptomycin) and cultured at 37° C. under 5% CO2.
Cell Treatment, In Cell Western (ICW) for detection of Symmetric di-Methyl Arginine and DNA content.
Z-138 cells were seeded in assay medium at a concentration of 50,000 cells per mL to a 384-well cell culture plate with 50 μL per well. Compound (100 nL) from 384 well source plates was added directly to 384 well cell plate. Plates were incubated at 37° C., 5% CO2 for 96 hours. After four days of incubation, 40 μL of cells from incubated plates were added to poly-D-lysine coated 384 well culture plates (BD Biosciences 356697). Plates were incubated at room temperature for 30 minutes then incubated at 37° C., 5% CO2 for 5 hours. After the incubation, 40 μL per well of 8% paraformaldehyde in PBS (16% paraformaldahyde was diluted to 8% in PBS) was added to each plate and incubated for 30 minutes. Plates were transferred to a Biotek 405 plate washer and washed 5 times with 100 μL per well of wash buffer (IX PBS with 0.1% Triton X-100 (v/v)). Next […] well of Odyssey blocking buffer were added to each plate and incubated 1 hour at room temperature. Blocking buffer was removed and 20 μL per well of primary antibody was added (symmetric di-methyl arginine diluted 1:100 in Odyssey buffer with 0.1% Tween 20 (v/v)) and plates were incubated overnight (16 hours) at 4° C. Plates were washed 5 times with 100 μL per well of wash buffer. Next 20 μL per well of secondary antibody was added (1:200 800CW goat anti-rabbit IgG (H+L) antibody, 1:1000 DRAQ5 (Biostatus limited) in Odyssey buffer with 0.1% Tween 20 (v/v)) and incubated for 1 hour at room temperature. The plates were washed 5 times with 100 μL per well wash buffer then 1 time with 100 μL per well of water. Plates were allowed to dry at room temperature then imaged on the Licor Odyssey machine which measures integrated intensity at 700 nm and 800 nm wavelengths. Both 700 and 800 channels were scanned.
First, the ratio for each well was determined by:
Each plate included fourteen control wells of DMSO only treatment (minimum inhibition) as well as fourteen control wells for maximum inhibition treated with 3 μM of a reference compound (Background wells). The average of the ratio values for each control type was calculated and used to determine the percent inhibition for each test well in the plate. Reference compound was serially diluted three-fold in DMSO for a total of nine test concentrations, beginning at 3 μM. Percent inhibition was determined and IC50 curves were generated using triplicate wells per concentration of compound.

Z-138 cell line = test: Z-138 Proliferation Assay (Cell Titer Glo); type: cell-based; conditions: Homo sapiens, 120 h; Z-138 cells, 5 days incubation, ATP (Cell Titer Glo)
Source text: Z-138 Proliferation Assay
Z-138 suspension cells were purchased from ATCC (American Type Culture Collection, Manassas, Va.). RPMI/Glutamax medium, penicillin-streptomycin, heat inactivated fetal bovine serum were purchased from Life Technologies, Grand Island, N.Y., USA. V-bottom polypropylene 384-well plates were purchased from Greiner Bio-One, Monroe, N.C., USA. Cell culture 384-well white opaque plates were purchased from Perkin Elmer, Waltham, Mass., USA. Cell-Titer Glo® was purchased from Promega Corporation, Madison, Wis., USA. SpectraMax M5 plate reader was purchased from Molecular Devices LLC, Sunnyvale, Calif., USA.
Z-138 suspension cells were maintained in growth medium (RPMI 1640 supplemented with 10% v/v heat inactivated fetal bovine serum and cultured at 37° C. under 5% CO2. Under assay conditions, cells were incubated in assay medium (RPMI 1640 supplemented with 10% v/v heat inactivated fetal bovine serum and 100 units/mL penicillin-streptomycin) at 37° C. under 5% CO2.
For the assessment of the effect of compounds on the proliferation of the Z-138 cell line, exponentially growing cells were plated in 384-well white opaque plates at a density of 10,000 cells/ml in a final volume of 50 μl of assay medium. A compound source plate was prepared by performing triplicate nine-point 3-fold serial dilutions in DMSO, beginning at 10 mM (final top concentration of compound in the assay was 20 μM and the DMSO was 0.2%). A 100 nL aliquot from the compound stock plate was added to its respective well in the cell plate. […] After addition of compounds, assay plates were incubated for 5 days at 37° C., 5% CO2, relative humidity >90%.
Cell viability was measured by quantitation of ATP present in the cell cultures, adding 35 μl of Cell Titer Glo® reagent to the cell plates. Luminescence was read in the SpectraMax M5 microplate reader. The concentration of compound inhibiting cell viability by 50% was determined using a 4-parametric fit of the normalized dose response curves.

T1 sequence (O14744 with tags, fused parts or gaps): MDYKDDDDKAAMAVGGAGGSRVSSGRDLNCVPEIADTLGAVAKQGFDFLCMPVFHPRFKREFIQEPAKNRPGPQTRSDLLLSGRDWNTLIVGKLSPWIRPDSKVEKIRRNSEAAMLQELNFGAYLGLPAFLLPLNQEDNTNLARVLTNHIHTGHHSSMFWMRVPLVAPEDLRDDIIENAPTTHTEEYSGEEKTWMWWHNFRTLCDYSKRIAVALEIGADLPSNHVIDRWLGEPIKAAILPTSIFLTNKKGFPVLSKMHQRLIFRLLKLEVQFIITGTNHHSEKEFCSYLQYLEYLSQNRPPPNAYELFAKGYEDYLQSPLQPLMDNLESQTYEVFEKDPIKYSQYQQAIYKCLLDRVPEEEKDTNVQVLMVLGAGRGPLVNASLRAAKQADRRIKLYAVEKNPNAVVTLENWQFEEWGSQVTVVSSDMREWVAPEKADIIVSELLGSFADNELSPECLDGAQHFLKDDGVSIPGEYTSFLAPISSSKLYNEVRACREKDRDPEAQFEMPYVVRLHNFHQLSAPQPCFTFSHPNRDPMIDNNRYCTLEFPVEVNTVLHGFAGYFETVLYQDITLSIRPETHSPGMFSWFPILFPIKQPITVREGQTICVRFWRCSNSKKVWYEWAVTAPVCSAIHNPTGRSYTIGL
T1 sequence (Q9BQA1 with tags, fused parts or gaps partner limits assumed): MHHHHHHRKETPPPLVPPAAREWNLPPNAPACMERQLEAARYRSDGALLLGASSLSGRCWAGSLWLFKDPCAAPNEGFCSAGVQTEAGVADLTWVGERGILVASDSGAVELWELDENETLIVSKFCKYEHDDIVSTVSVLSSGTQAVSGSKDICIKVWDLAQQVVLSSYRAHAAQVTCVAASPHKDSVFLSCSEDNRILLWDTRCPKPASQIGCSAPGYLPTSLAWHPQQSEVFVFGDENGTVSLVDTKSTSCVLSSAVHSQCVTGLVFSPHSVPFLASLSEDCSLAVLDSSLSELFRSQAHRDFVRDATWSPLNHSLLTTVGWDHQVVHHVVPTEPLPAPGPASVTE

Structure (SMILES)	IC50 (PRMT5/MEP50) [µM]	EC50 [1] [µM]	EC50 (Z-138 cell line) [µM]
O=C(NC[C@H](O)CN1CCc2[nH]ncc2C1)c1cc(NC2COC2)ncn1 [Compound 3-19]	> 10	> 1	
OC(COc1cccc(CNC2CCCC2)c1)CN1CCc2[nH]ncc2C1 (stereo not shown) [Compound 3-14]	> 50		> 40
CC(=O)N1CC(Nc2cc(C(=O)NC[C@H](O)CN3CCc4nc(C)sc4C3)ncn2)C1 [Compound 1-6, (S)-6-((1-acetylazetidin-3-yl)amino)-N-(2-hydroxy-3-(2-methyl-6,7-dihydrothiazolo[5,4-c]pyridin-5(4H)-yl)propyl)pyrimidine-4-carboxamide]	1 to 10		> 5
OC(COc1cccc(CNC2CCCC2)c1)CN1CCc2[nH]nc(-c3ccccc3)c2C1 (stereo not shown) [Compound 3-9, 1-(3-((cyclopentylamino)methyl)phenoxy)-3-(3-phenyl-6,7-dihydro-1H-pyrazolo[4,3-c]pyridin-5(4H)-yl)propan-2-ol]	10 to 50		10 to 50
O=C(NC[C@H](O)CN1CCc2cn[nH]c2C1)c1cc(NC2COC2)ncn1 [Compound 3-39]	> 10		> 5

Source: patent US20170210751A1, “PRMT5 INHIBITORS AND USES THEREOF” (Epizyme, Inc., priority 2014, published 2017)
